Laboratory results taken from paper PMC5201116, “Bioactive Flavonoids and Catechols as Hif1 and Nrf2 Protein Stabilizers - Implications for Parkinson’s Disease” (Aging and Disease, 2016).
Read-outs that look alike come from different tables or passages of the source.

What was measured:
[1] = design: method as in PMID 17112238; conditions: cited from earlier work
[2] = system: HRE-luciferase reporter (HT22 hippocampal cell line); experiment: HRE-luc reporter assay; assay type: cell-based; conditions: for fold induction at 10 µM: Mus musculus, HT-22, 3 h, read-out: HRE-luc fold activation; for fold induction at 10 µM / HRE-luc fold activation: at 10 µM
Text: A promoter-reporter construct that contained 68 bp of a known hypoxia and HIF-1 regulated gene, enolase, containing a wild type hypoxia response element (HRE, 5’-RCTGT-3’), is a widely used approach for screening for HIF activators of different mechanism of action. A cell-based assay with HRE-luciferase reporter system is based on transfected immortalized hippocampal cell line (HT22) and allows screening for a broad spectrum of compounds that include: activators of HIF transcription; activators of HIF binding to HRE; and effectors of HIF protein stability (PHD inhibitors, pVHL & proteasome inhibitors). The assay was performed the same way as for HIF ODD-luc reporter except the cells were plated at the density of 10,000 cell per well and incubated overnight.

[3] = Non-enzymatic ferricyanide reduction rate constant; assay type: physicochemical; conditions: 1 mM ferricyanide, pH 7.0
Method: The rate of ferricyanide reduction by individual flavonoids was measured spectrophotometrically at 420 nm with the fixed concentration of ferricyanide (1 mM) and varied concentrations of a flavonoid in Potassium-phosphate buffer, pH 7.0. The rate constant for direct ferricyanide reduction was calculated from the slope of the dependence reaction rate vs flavonoid concentration and used as a measure of flavonoid non-specific reducing power.

[4] = system: primary neuronal cultures treated with 5 mM HCA; experiment: Glutathione depletion (HCA) model, MTT viability; assay type: cell-based, rat; conditions: for concentration at which neuroprotection begins: glutathione depletion model, Fig. 5; for EC50: Rattus norvegicus, results not shown, read-out: EC50 of protection in glutathione depletion model
Method: Primary neuronal cultures were prepared from the forebrains of Sprague-Dawley rat embryos (E17) and plated on 96 well plates at a 10^6 cells/ml density. After 24 hours, cells were rinsed with warm PBS and then placed in minimum Essential Medium (MEM; Life Technologies, Grand Island, NY) containing 5 mM HCA in the presence of a compound of interest at varied concentrations. Cells were incubated for 24 h or longer to see 90% cell death in HCA treated controls. Viability was assessed by the MTT (4,5-dimethylthiazol-2-yl)-2,5-diphenyltetrazolium bromide) assay.

[5] = Iron binding constant, calcein displacement assay; assay type: physicochemical; conditions: calcein displacement
Text: Calcein displacement assay in the presence of varied concentrations of flavonoids and catechols has been used. Calcein release from its complex with iron was monitored by fluorescence as described in [26].

[6] = target: T1, Rabbit Reticulocyte 15-LOX-1 (Oryctolagus cuniculus, UniProt P12530); experiment: Rabbit LOX 12/15 (rabbit reticulocyte 15-LOX-1) activity; assay type: biochemical; conditions: compounds at 25 µM, Fig. 4A
T1 sequence (P12530 1-663): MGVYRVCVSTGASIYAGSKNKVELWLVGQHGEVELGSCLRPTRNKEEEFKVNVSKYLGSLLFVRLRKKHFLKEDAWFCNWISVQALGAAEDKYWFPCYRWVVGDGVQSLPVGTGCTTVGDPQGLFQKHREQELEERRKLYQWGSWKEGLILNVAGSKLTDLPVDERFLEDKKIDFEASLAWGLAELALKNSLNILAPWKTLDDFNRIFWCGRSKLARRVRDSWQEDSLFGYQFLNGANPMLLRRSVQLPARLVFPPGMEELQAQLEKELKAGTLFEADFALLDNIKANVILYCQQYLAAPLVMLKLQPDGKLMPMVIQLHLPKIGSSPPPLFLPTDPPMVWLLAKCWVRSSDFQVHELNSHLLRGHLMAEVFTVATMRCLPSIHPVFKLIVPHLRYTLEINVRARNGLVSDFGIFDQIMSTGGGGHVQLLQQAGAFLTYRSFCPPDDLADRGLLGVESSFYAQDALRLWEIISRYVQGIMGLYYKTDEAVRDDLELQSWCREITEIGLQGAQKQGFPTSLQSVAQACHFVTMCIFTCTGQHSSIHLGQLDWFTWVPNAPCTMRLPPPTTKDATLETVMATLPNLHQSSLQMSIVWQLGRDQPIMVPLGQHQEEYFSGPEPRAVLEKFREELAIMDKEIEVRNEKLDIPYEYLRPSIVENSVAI
Method: The activity of the purified enzyme was measured in the end-point in vitro assay of arachidonic acid oxidation following the formation of fluorescent diphenyl-1-pyrenylphosphine oxide. DMSO was used as a control.

[7] = system: HIF1 ODD-luc reporter (SH-SY5Y cell line); experiment: HIF1 ODD-luc reporter assay; assay type: cell-based; conditions: for fold induction at 10 µM: 3 h, read-out: ODD-luc fold activation; for fold induction at 10 µM / ODD-luc fold activation: 3 h incubation, at 10 µM
Method: (§1) SH-SY5Y cell lines stably expressing HIF1 ODD-luc or Neh2-luc reporters were grown in the DMEM/F12 supplemented with GlutaMAX (Thermo Fisher Scientific) containing 10% FBS, 100 U/ml penicillin, and 100 μg/ml streptomycin and plated into 384-well white flat-bottom plates at 7,000 cell/well in 30 µl serum and incubated overnight at 37°C, 5% CO2. The next day compounds were added to a final concentration of 10 µM and the plates were incubated for 3 hours at 37°C. Reporter activation after 3 h incubation with the studied compound was compared to that for ciclopirox (HIF1 ODD-luc reporter) or TBHQ (Neh2-luc reporter), taken as 100%. Luciferase reporter activity was measured with a SteadyGlo reagent from Promega providing stable reading for 1 h.
(§2) Cells were plated at the density of 25,000 cell per well using a WellMate multichannel dispenser from Matrix (Thermo Fisher Scientific, Waltham, MA) and grown overnight on DMEM/F12+GlutaMAX (100 µl per well). Then an inhibitor was added, and the plates were incubated for a fixed time interval; the medium was removed, cells lysed, and luciferase activity was measured on a SpectraMax M5e platereader (Molecular Devices, Sunnyvale, CA) with BrightGlo™ reagent (Promega, Madison, WI). The reporter activation was normalized to the background luminescence. The effect of 0.5 mM N-acetylcysteine (NAC) was studied by simultaneous addition of 5 µL of 10 mM stock of NAC in water and 2 µL of 50x stock solutions of a flavonoid in DMSO.

[8] = system: Neh2-luc reporter (SH-SY5Y cell line); experiment: Neh2-luc reporter assay; assay type: cell-based; conditions: for EC50: Neh2-luc; for fold induction at 10 µM / Neh2-luc fold activation: 3 h incubation, at 10 µM; for fold induction at 10 µM: read-out: Neh2-luc fold activation
Method: as §1, §2

[9] = system: VEGF mRNA in immature primary cortical neurons; experiment: VEGF mRNA induction, real-time RT-PCR; assay type: cell-based; conditions: overnight pretreatment, Fig. 4B
Method: For VEGF gene expression studies, total RNA was isolated from immature primary cortical neurons, pretreated overnight with the indicated concentration of a bioactive compound, using the NucleoSpin RNA II kit (Macherey-Nagel, Bethlehem, PA) according to manufacturer’s protocol. Real-time PCR was performed in triplicate as a duplex reaction using a VEGF (Mm01281449_m1) gene expression assay with a 6-carboxyfluorescein-labeled probe, and a β actin gene expression assay with a VIC-labeled probe (Applied Biosystems, Foster City, CA), so that gene amplification could be normalized to β actin. These experiments were performed using a 7500 Real-time PCR System (Applied Biosystems) using standard PCR protocol and amplification conditions.

HIF PHD2 = conditions: competitive with α-KG; read-out: PHD2 Ki; cited from earlier work
HIF prolyl hydroxylase = target: HIF prolyl hydroxylase; design: method as in PMID 3011801; conditions: enzyme in vitro assay; read-out: enzyme inhibition constant; cited from earlier work
[10] = simultaneous addition of 0.5 mM NAC, results not shown

Compound | EHOMO [1] | fold induction at 10 µM [2] | FC red Rate Const [3] | concentration at which neuroprotection begins [4] | Iron complex Diss. Const [5] | fold induction at 10 µM ([7]; Homo sapiens, SH-SY5Y) | EC50 ([8]; Homo sapiens, SH-SY5Y) | fold induction at 10 µM ([8]; Homo sapiens, SH-SY5Y) | ODD-luc fold activation [7] | Neh2-luc fold activation [8] | also measured
O=c1c(O)c(-c2ccc(O)c(O)c2)oc2cc(O)ccc12 [compound 10, Fisetin] | -8.69 eV | 2 ± 0.2 | 301000 ± 34000 M⁻¹ s⁻¹ | 2.5 µM | 2.7 ± 0.3 µM | 1.6 ± 0.2 | 2 µM | 23 ± 3 |  |  | LOX inhibition [6]: equipotent as LOX inhibitors; effect of NAC on Neh2-luc reporter activation [8, 10]: no effect
O=c1cc(-c2ccc(O)c(O)c2)oc2ccccc12 [compound 19, 3’,4’-dihydroxyflavone] |  | 2 ± 0.25 |  |  | 2.5 ± 0.3 µM | 2.5 ± 0.3 | 2 µM | 15 ± 2 |  |  | Induction of VEGF mRNA [9]: mild inducers
O=c1c(O)c(-c2ccc(O)cc2)oc2cc(O)cc(O)c12 [compound 9, Kaempferol] | -8.74 eV | 1.5 ± 0.2 | 369000 ± 42000 M⁻¹ s⁻¹ |  | 2.5 ± 0.3 µM |  | 5 µM | 15 ± 2 | Inactive |  | drop in Neh2-luc reporter activation with NAC [8, 10]: 2 fold
O=c1cc(-c2ccccc2)oc2cc(O)c(O)c(O)c12 [compound 17, Baicalein] | -8.99 eV | 5 ± 0.6 | 25500 ± 3000 M⁻¹ s⁻¹ |  | 2.5 ± 0.3 µM |  |  |  | Inactive | Inactive | Ki (HIF PHD2): 7 µM
C[C@@](Cc1ccc(O)c(O)c1)(NN)C(=O)O [compound 31, N-Aminomethyldopa, reference compound] |  |  |  |  | 2.5 ± 0.3 µM |  | 20 µM |  | Inactive | Inactive | HRE-luc fold activation [2]: Inactive; EC50 [4]: > 20 µM
O=c1cc(-c2ccc(O)c(O)c2)oc2cc(O)cc(O)c12 [compound 18, Luteolin] | -9.09 eV | 2 ± 0.25 | 130000 ± 15000 M⁻¹ s⁻¹ | 1.2 µM | 3.5 ± 0.4 µM | 2.5 ± 0.3 | 2 µM | 5 ± 0.6 |  |  | LOX inhibition [6]: equipotent as LOX inhibitors
CCOC(=O)c1ccc(O)c(O)c1 [compound 32, Ethyl 3,4-dihydroxybenzoate, reference compound] |  |  |  |  | 2.5 ± 0.3 µM |  | 20 µM |  |  | Inactive | HRE-luc: concentration above which active [2]: Active above 20 µM; Ki (HIF prolyl hydroxylase): 5 µM; ODD-luc: concentration above which active [7]: Active above 50 µM; ODD-luc: concentration above which active ([7]; listed as DHB): above 50 µM
O=c1c(-c2ccc(O)c(O)c2)coc2cc(O)ccc12 [compound 27, 3’-Hydroxy-daidzein] |  |  |  | 2.5 µM | 3.5 ± 0.4 µM |  |  |  | 2.5±0.3 fold | 15±2 fold | HRE-luc fold activation [2]: 2.5±0.3 fold; neuroprotection in glutathione depletion model [4]: protective; EC50 [8]: 5 µM; Neh2-luc fold activation ([8]; listed as 3’-hydroxydaidzein): active
N[C@@H](Cc1ccc(O)c(O)c1)C(=O)O [compound 29, 3,4-Dihydroxy-L-phenylalanine, reference compound] |  | 1.7 ± 0.2 |  |  | 2.5 ± 0.3 µM | 2 ± 0.25 | 20 µM |  |  | Inactive | EC50 [4]: 6 µM; EC50 ([7]; Homo sapiens, SH-SY5Y): 15 µM
O=c1c(O)c(-c2ccccc2)oc2cc(O)cc(O)c12 [compound 8, Galangin] | -8.90 eV | 1.3 ± 0.2 | 48000 ± 6000 M⁻¹ s⁻¹ |  | 3.5 ± 0.4 µM |  |  |  | Inactive | Inactive | 
